Assay results reported in patent US9976141B2, “Compositions and methods for inhibiting gene expression of Hif2alpha” (Arrowhead Madison Inc., priority 2015, dated 2018).
Strand notation (5' to 3'): a small letter for the sugar, then the base; units joined by * are phosphorothioate-linked, units joined directly phosphodiester-linked; [ ] holds rarer units or linkages, { } end groups; capitals alone tell only the bases. d = 2'-deoxy (DNA); m = 2'-O-methyl; f = 2'-fluoro

System: human EPAS1 (Hif2α) cDNA in psiCHECK2 (Renilla luciferase/EPAS1 fusion mRNA) in Hep3B cells
Experiment: Efficacy screen of Hif2α RNAi triggers in vitro, dual-luciferase reporter assay (1 nM and 0.1 nM)
Type: cell-based
Conditions: Hep3B cells co-transfected with EPAS1-psiCHECK2, Renilla luciferase normalized to firefly luciferase
In short: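 Knockdown read by dual-luciferase assay: Renilla signal from the Renilla/EPAS1 fusion transcript divided by firefly luciferase expressed from the same plasmid. Triggers (modified canonical siRNAs, 1 nM or 0.1 nM) were co-transfected with 25 ng reporter plasmid per well into human hepatocellular carcinoma Hep3B cells.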

Row | Substance | Relative Rluc-Hif2α (0.1 nM RNAi trigger) | Relative Rluc-Hif2α (1 nM RNAi trigger)
1 | 2355 (sense fCmAfUmAfGmGfUmGfUmGfAmCfAmAfUmCfCmGfAdT; antisense dTfCmGfGmAfUmUfGmUfCmAfCmAfCmCfUmAfUmGdT*dT; siRNA) [compound 2355] | 0.457 ± 0.066 | 0.248 ± 0.063
2 | 2356 (sense fAmUfAmGfGmUfGmUfGmAfCmAfAmUfCmCfGmAfAdT; antisense dTfUmCfGmGfAmUfUmGfUmCfAmCfAmCfCmUfAmUdT*dT; siRNA) [compound 2356] | 0.574 ± 0.006 | 0.210 ± 0.023
3 | 2357 (sense fGmGfUmGfUmGfAmCfAmAfUmCfCmGfAmGfCmAfAdT; antisense dTfUmGfCmUfCmGfGmAfUmUfGmUfCmAfCmAfCmCdT*dT; siRNA) [compound 2357] | 0.737 ± 0.082 | 0.435 ± 0.062
4 | 2358 (sense fAmCfAmAfUmCfCmGfAmGfCmAfGmUfGmGfAmGfAdT; antisense dTfCmUfCmCfAmCfUmGfCmUfCmGfGmAfUmUfGmUdT*dT; siRNA) [compound 2358] | 0.647 ± 0.113 | 0.731 ± 0.123
5 | 2359 (sense fCmCfGmAfGmCfAmGfUmGfGmAfGmUfCmAfUmUfAdT; antisense dTfAmAfUmGfAmCfUmCfCmAfCmUfGmCfUmCfGmGdT*dT; siRNA) [compound 2359] | 0.576 ± 0.208 | 0.354 ± 0.022
6 | 2360 (sense fGmGfGmAfGmCfAmCfUmGfCmGfCmGfCmUfAmUfAdT; antisense dTfAmUfAmGfCmGfCmGfCmAfGmUfGmCfUmCfCmCdT*dT; siRNA) [compound 2360] | 1.102 ± 0.119 | 0.962 ± 0.167
7 | 2361 (sense fGmGfAmGfCmAfCmUfGmCfGmCfGmCfUmAfUmCfAdT; antisense dTfGmAfUmAfGmCfGmCfGmCfAmGfUmGfCmUfCmCdT*dT; siRNA) [compound 2361] | 0.800 ± 0.198 | 0.603 ± 0.133
8 | 2362 (sense fAmGfCmAfCmUfGmCfGmCfGmCfUmAfUmCfCmCfAdT; antisense dTfGmGfGmAfUmAfGmCfGmCfGmCfAmGfUmGfCmUdT*dT; siRNA) [compound 2362] | 0.673 ± 0.089 | 0.454 ± 0.069
9 | 2363 (sense fUmAfUmUfGmCfUmGfCmCfAmAfGmAfGmGfGmUfAdT; antisense dTfAmCfCmCfUmCfUmUfGmGfCmAfGmCfAmAfUmAdT*dT; siRNA) [compound 2363] | 0.653 ± 0.199 | 0.452 ± 0.091
10 | 2364 (sense fGmGfUmCfUmGfAmUfGmGfCmAfCmGfUmUfGmUfAdT; antisense dTfAmCfAmAfCmGfUmGfCmCfAmUfCmAfGmAfCmCdT*dT; siRNA) [compound 2364] | 1.070 ± 0.042 | 0.855 ± 0.282
11 | 2365 (sense fCmUfGmAfUmGfGmCfAmCfGmUfUmGfUmGfGmGfAdT; antisense dTfCmCfCmAfCmAfAmCfGmUfGmCfCmAfUmCfAmGdT*dT; siRNA) [compound 2365] | 1.132 ± 0.107 | 1.259 ± 0.247
12 | 2366 (sense fGmGfCmAfCmGfUmUfGmUfGmGfGmGfUmCfGmGfAdT; antisense dTfCmCfGmAfCmCfCmCfAmCfAmAfCmGfUmGfCmCdT*dT; siRNA) [compound 2366] | 0.879 ± 0.223 | 0.695 ± 0.115
13 | 2367 (sense fGmCfAmCfGmUfUmGfUmGfGmGfGmUfCmGfGmGfAdT; antisense dTfCmCfCmGfAmCfCmCfCmAfCmAfAmCfGmUfGmCdT*dT; siRNA) [compound 2367] | 0.665 ± 0.064 | 0.376 ± 0.039
14 | 2368 (sense fCmAfCmGfUmUfGmUfGmGfGmGfUmCfGmGfGmGfAdT; antisense dTfCmCfCmCfGmAfCmCfCmCfAmCfAmAfCmGfUmGdT*dT; siRNA) [compound 2368] | 1.036 ± 0.063 | 1.140 ± 0.221
15 | 2369 (sense fGmCfGmGfGmGfAmAfGmUfGmCfUmCfUmAfAmCfAdT; antisense dTfGmUfUmAfGmAfGmCfAmCfUmUfCmCfCmCfGmCdT*dT; siRNA) [compound 2369] | 0.464 ± 0.032 | 0.338 ± 0.055
16 | 2370 (sense fCmGfGmGfGmAfAmGfUmGfCmUfCmUfAmAfCmUfAdT; antisense dTfAmGfUmUfAmGfAmGfCmAfCmUfUmCfCmCfCmGdT*dT; siRNA) [compound 2370] | 0.498 ± 0.128 | 0.294 ± 0.026
17 | 2371 (sense fUmUfAmAfGmGfUmUfUmUfGmUfUmGfCmUfAmGfAdT; antisense dTfCmUfAmGfCmAfAmCfAmAfAmAfCmCfUmUfAmAdT*dT; siRNA) [compound 2371] | 0.193 ± 0.030 | 0.166 ± 0.037
18 | 2372 (sense fGmUfUmGfCmUfAmGfCmCfCmUfUmCfAmAfGmUfAdT; antisense dTfAmCfUmUfGmAfAmGfGmGfCmUfAmGfCmAfAmCdT*dT; siRNA) [compound 2372] | 0.831 ± 0.103 | 0.514 ± 0.044

Row | Substance | Relative Rluc-Hif2α (0.1 nM RNAi trigger) | Relative Rluc-Hif2α (1 nM RNAi trigger)
19 | 2373 (sense fGmAfGmCfUmAfUmGfUmGfAmCfUmCfGmGfAmUfAdT; antisense dTfAmUfCmCfGmAfGmUfCmAfCmAfUmAfGmCfUmCdT*dT; siRNA) [compound 2373] | 0.369 ± 0.082 | 0.162 ± 0.032
20 | 2374 (sense fGmCfUmAfUmGfUmGfAmCfUmCfGmGfAmUfGmGfAdT; antisense dTfCmCfAmUfCmCfGmAfGmUfCmAfCmAfUmAfGmCdT*dT; siRNA) [compound 2374] | 0.355 ± 0.020 | 0.192 ± 0.014
21 | 2375 (sense fCmGfGmAfUmGfGmUfCmUfUmUfCmAfCmAfCmGfAdT; antisense dTfCmGfUmGfUmGfAmAfAmGfAmCfCmAfUmCfCmGdT*dT; siRNA) [compound 2375] | 0.481 ± 0.062 | 0.305 ± 0.040
22 | 2376 (sense fGmAfUmGfGmUfCmUfUmUfCmAfCmAfCmGfGmCfAdT; antisense dTfGmCfCmGfUmGfUmGfAmAfAmGfAmCfCmAfUmCdT*dT; siRNA) [compound 2376] | 0.546 ± 0.115 | 0.228 ± 0.029
23 | 2377 (sense fUmGfGmUfCmUfUmUfCmAfCmAfCmGfGmCfAmCfAdT; antisense dTfGmUfGmCfCmGfUmGfUmGfAmAfAmGfAmCfCmAdT*dT; siRNA) [compound 2377] | 0.900 ± 0.189 | 0.958 ± 0.189
24 | 2378 (sense fAmAfCmUfAmCfCmAfUmGfAmGfAmUfGmGfUmUfAdT; antisense dTfAmAfCmCfAmUfCmUfCmAfUmGfGmUfAmGfUmUdT*dT; siRNA) [compound 2378] | 0.994 ± 0.246 | 0.734 ± 0.170
25 | 2379 (sense fUmAfCmCfAmUfGmAfGmAfUmGfGmUfUmUfAmGfAdT; antisense dTfCmUfAmAfAmCfCmAfUmCfUmCfAmUfGmGfUmAdT*dT; siRNA) [compound 2379] | 0.858 ± 0.098 | 0.939 ± 0.204
26 | 2380 (sense fCmCfAmAfGmCfUmCfAmCfGmAfCmCfUmUfGmGfAdT; antisense dTfCmCfAmAfGmGfUmCfGmUfGmAfGmCfUmUfGmGdT*dT; siRNA) [compound 2380] | 1.128 ± 0.285 | 1.722 ± 0.101
27 | 2381 (sense fAmCfGmAfCmCfUmUfGmGfAmGfCmCfCmCfGmUfAdT; antisense dTfAmCfGmGfGmGfCmUfCmCfAmAfGmGfUmCfGmUdT*dT; siRNA) [compound 2381] | 0.756 ± 0.109 | 1.063 ± 0.191
28 | 2382 (sense fGmGfGmUfAmAfGmAfGmGfGmAfCmGfAmCfAmCfAdT; antisense dTfGmUfGmUfCmGfUmCfCmCfUmCfUmUfAmCfCmCdT*dT; siRNA) [compound 2382] | 1.070 ± 0.064 | 1.151 ± 0.365
29 | 2383 (sense fGmGfUmAfAmGfAmGfGmGfAmCfGmAfCmAfCmCfAdT; antisense dTfGmGfUmGfUmCfGmUfCmCfCmUfCmUfUmAfCmCdT*dT; siRNA) [compound 2383] | 0.833 ± 0.082 | 1.060 ± 0.292
30 | 2384 (sense fGmUfAmAfGmAfGmGfGmAfCmGfAmCfAmCfCmUfAdT; antisense dTfAmGfGmUfGmUfCmGfUmCfCmCfUmCfUmUfAmCdT*dT; siRNA) [compound 2384] | 0.533 ± 0.067 | 0.439 ± 0.101
31 | 2385 (sense fUmGfGmUfUmUfUmUfCmAfAmUfAmCfCmAfAmUfAdT; antisense dTfAmUfUmGfGmUfAmUfUmGfAmAfAmAfAmCfCmAdT*dT; siRNA) [compound 2385] | 0.701 ± 0.178 | 0.515 ± 0.089
32 | 2386 (sense fUmUfCmAfAmUfAmCfCmAfAmUfUmAfCmAfUmGfAdT; antisense dTfCmAfUmGfUmAfAmUfUmGfGmUfAmUfUmGfAmAdT*dT; siRNA) [compound 2386] | 0.603 ± 0.032 | 0.274 ± 0.087
33 | 2387 (sense fAmUfAmCfCmAfAmUfUmAfCmAfUmGfGmAfAmCfAdT; antisense dTfGmUfUmCfCmAfUmGfUmAfAmUfUmGfGmUfAmUdT*dT; siRNA) [compound 2387] | 0.436 ± 0.028 | 0.201 ± 0.063
34 | 2388 (sense fCmCfAmAfCmUfAmUfUmUfAmGfUmAfAmGfCmCfAdT; antisense dTfGmGfCmUfUmAfCmUfAmAfAmUfAmGfUmUfGmGdT*dT; siRNA) [compound 2388] | 0.901 ± 0.318 | 0.436 ± 0.021
35 | 2389 (sense fAmAfCmUfAmUfUmUfAmGfUmAfAmGfCmCfCmGfAdT; antisense dTfCmGfGmGfCmUfUmAfCmUfAmAfAmUfAmGfUmUdT*dT; siRNA) [compound 2389] | 1.085 ± 0.307 | 0.820 ± 0.184
